Assay results taken from patent publication US11566047B2, “Peptide or pharmaceutically acceptable salt thereof, or prodrug thereof” (TOKYO UNIVERSITY OF PHARMACY & LIFE SCIENCES, priority 2016, dated 2023).
Square brackets hold non-standard residues; d marks the D form. Peptide text beside a SMILES is read from it. * marks the point of attachment. Diglycolyl(TOTA) = NCCCOCCOCCOCCCNC(=O)COCC(=O)*; Chg = N[C@H](C(=O)O)C1CCCCC1; X1 = COCCOCCOCCOCCC(=O)*; Ahx = NCCCCCC(=O)O

Target: T1, myostatin (Homo sapiens, UniProt O14793)
T1 sequence (O14793 267-375): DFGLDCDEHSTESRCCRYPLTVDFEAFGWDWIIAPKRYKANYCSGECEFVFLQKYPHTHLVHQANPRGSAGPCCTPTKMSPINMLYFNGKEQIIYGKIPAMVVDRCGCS
Experiment: cell-based
Settings: for remaining activity at 0.3 µM: HEK293, read-out: luciferase activity (relative; myostatin without test sample = 100%)
Protocol: Human embryo kidney cell HEK293 cells were cultured in a 5% (v/v) CO2 incubator set to 37° C. using DMEM (NACALAI TESQUE, INC.) including a 10% (v/v) fetal bovine serum (FBS) added with a 1% (v/v) non-essential amino acid (Wako Pure Chemical Corporation).
(2) In Vitro Reporter Assay
HEK293 cells were seeded on a D-Lys-corted 96-well transparent plate (Thermo Fisher Scientific Inc.) in an amount of 2.0×10^4 cells (100 μL DMEM+10% (v/v) FBS) per well and were cultured for 24 hours.
The cells were cultured at 37° C. for 24 hours, and after the cell culture solution was replaced with serum-free DMEM, the cells were cultured for 8 hours. Incidentally, pGL4.48 [luc2P/SBE/Hygro] includes firefly luciferase reporter gene luc2P under Smad binding region (SBE) control, and when a signaling pathway by the myostatin is activated, intracellular Smad forms a complex, and the complex is bonded to SBE to promote transcription of luc2P.
The peptide as a test sample was suspended as a stock solution using DMSO to become 10 mM and stored at −30° C. Before 1 hour from addition to the culture medium, the peptide and a myostatin (Merck Millipore Corp.) were suspended with serum-free DMEM and left to stand still at room temperature (25° C.) for 20 minutes. Subsequently, a peptide with an arbitrary final concentration (0.3 to […]) and 8 ng/mL of myostatin were added to the culture medium, and then culturing was performed for 4 hours. After culturing for 4 hours, the culture solution was removed by an aspirator and the cells were washed with 1×PBS. Thereafter, Passive Lysis buffer (Promega Corporation) was added in an amount of 50 μL per well to dissolve the cells. The dissolving solution was subjected to centrifugal separation at 4500 rpm for 6 minutes under the condition of 4° C. After 20 μL of supernatant subjected to centrifugal separation was transferred to a white 96-well plate (Costar), 50 μL of Luciferase Assay Reagent (Promega Corporation) was then added, emission was detected by Luminoskan Ascent (Thermo Fisher Scientific Inc.), and a firefly luciferase activity was measured. Further, after 50 μL of Stop & Glo Buffer (Promega Corporation) was added, emission was detected by Luminoskan Ascent, and a Renilla luciferase activity was measured to be regarded as an internal control.

Compound | remaining activity at 0.3 µM [%] | IC50 (read-out: IC50 value, myostatin inhibitory activity, concentration range of 0.016 to 2 μM) [nM] | inhibitory activity relative to 3d (comparison of IC50 values)
CC[C@H](C)[C@H](NC(=O)[C@H](CCC(N)=O)NC(=O)[C@@H](NC(=O)[C@H](CCCCN)NC(=O)[C@@H](NC(=O)[C@@H](Cc1c[nH]c2ccccc12)NC(=O)[C@H](CCCNC(=N)N)NC(=O)[C@@H](NC(=O)[C@H](Cc1ccc(O)cc1)NC(=O)[C@@H](N)Cc1c[nH]c2ccccc12)[C@@H](C)CC)[C@@H](C)CC)C1CCCCC1)C(=O)N[C@@H](Cc1c[nH]c2ccccc12)C(=O)N[C@@H](CO)C(=O)N[C@@H](CCCCN)C(=O)N[C@H](C(=O)N[C@@H](CCCNC(=N)N)C(=O)N[C@@H](CC(C)C)C(N)=O)C1CCCCC1 [nPDM-86, WYIRwIK-Chg-QIWSK-Chg-RL-NH2] (H-WYIR[dW]IK[Chg]QIWSK[Chg]RL-NH2) | ≤ 60 | 131 | approximately two times higher inhibitory activity
CC[C@H](C)[C@H](NC(=O)[C@H](CCC(N)=O)NC(=O)[C@@H](NC(=O)[C@H](CCCCN)NC(=O)[C@@H](NC(=O)[C@H](Cc1c[nH]c2ccccc12)NC(=O)[C@H](CCCCN)NC(=O)[C@@H](NC(=O)[C@H](Cc1ccc(O)cc1)NC(=O)[C@@H](N)Cc1c[nH]c2ccccc12)[C@@H](C)CC)[C@@H](C)CC)[C@@H](C)CC)C(=O)N[C@@H](Cc1c[nH]c2ccccc12)C(=O)N[C@@H](CO)C(=O)N[C@@H](CCCCN)C(=O)N[C@@H](CC(C)C)C(=O)N[C@@H](CCCNC(=N)N)C(=O)N[C@@H](CC(C)C)C(N)=O [nPDM-55/E31K, WYIKWIKIQIWSKLRL-NH2] (H-WYIKWIKIQIWSKLRL-NH2) | ≤ 60 | – | –
CC[C@H](C)[C@H](NC(=O)[C@H](CCC(N)=O)NC(=O)[C@@H](NC(=O)[C@H](CCCNC(=N)N)NC(=O)[C@@H](NC(=O)[C@@H](Cc1c[nH]c2ccccc12)NC(=O)[C@H](CCCNC(=N)N)NC(=O)[C@@H](NC(=O)[C@H](Cc1ccc(O)cc1)NC(=O)[C@@H](N)Cc1c[nH]c2ccccc12)[C@@H](C)CC)[C@@H](C)CC)C1CCCCC1)C(=O)N[C@@H](Cc1c[nH]c2ccccc12)C(=O)N[C@H](CO)C(=O)N[C@@H](CCCNC(=N)N)C(=O)N[C@H](C(=O)N1CCC[C@H]1C(=O)N[C@@H](CC(C)C)C(N)=O)C1CCCCC1 [nPDM-82, WYIRwIR-Chg-QIWsR-Chg-PL-NH2] (H-WYIR[dW]IR[Chg]QIW[dS]R[Chg]PL-NH2) | ≤ 60 | – | –
CC[C@H](C)[C@H](NC(=O)[C@H](CCC(N)=O)NC(=O)[C@@H](NC(=O)[C@H](CCCNC(=N)N)NC(=O)[C@@H](NC(=O)[C@@H](Cc1c[nH]c2ccccc12)NC(=O)[C@H](CCCNC(=N)N)NC(=O)[C@@H](NC(=O)[C@H](Cc1ccc(O)cc1)NC(=O)[C@@H](N)Cc1c[nH]c2ccccc12)[C@@H](C)CC)[C@@H](C)CC)C1CCCCC1)C(=O)N[C@@H](Cc1c[nH]c2ccccc12)C(=O)N[C@@H](CO)C(=O)N[C@@H](CCCNC(=N)N)C(=O)N[C@H](C(=O)N1CCC[C@H]1C(=O)N[C@@H](CC(C)C)C(N)=O)C1CCCCC1 [nPDM-80, WYIRwIR-Chg-QIWSR-Chg-PL-NH2] (H-WYIR[dW]IR[Chg]QIWSR[Chg]PL-NH2) | ≤ 60 | – | –
CC[C@H](C)[C@H](NC(=O)[C@H](CCC(N)=O)NC(=O)[C@@H](NC(=O)[C@H](CCCCN)NC(=O)[C@@H](NC(=O)[C@H](Cc1c[nH]c2ccccc12)NC(=O)[C@H](CCC(=O)O)NC(=O)[C@@H](NC(=O)[C@H](Cc1ccc(O)cc1)NC(=O)[C@@H](N)Cc1c[nH]c2ccccc12)[C@@H](C)CC)[C@@H](C)CC)[C@@H](C)CC)C(=O)N[C@@H](Cc1c[nH]c2ccccc12)C(=O)N[C@@H](CO)C(=O)N[C@@H](CCCCN)C(=O)N[C@@H](CC(C)C)C(=O)N[C@@H](CCCNC(=N)N)C(=O)N[C@@H](CC(C)C)C(N)=O [nPDM-55, WYIEWIKIQIWSKLRL-NH2] (H-WYIEWIKIQIWSKLRL-NH2) | ≤ 60 | – | –

More lines, main results first:

remaining activity at 0.3 µM [%] | IC50 (read-out: IC50 value, myostatin inhibitory activity, concentration range of 0.016 to 2 μM) [nM] | Compound | inhibitory activity relative to 3d (comparison of IC50 values)
≤ 60 | – | CC[C@H](C)[C@H](NC(=O)[C@H](Cc1ccc(O)cc1)NC(=O)[C@H](Cc1c[nH]c2ccccc12)NC(=O)CCCCCNC(=O)CCOCCOCCOCCOC)C(=O)N[C@@H](CCC(=O)O)C(=O)N[C@@H](CO)C(=O)N[C@H](C(=O)N[C@@H](CCCCN)C(=O)N[C@H](C(=O)N[C@@H](CCC(N)=O)C(=O)N[C@H](C(=O)N[C@@H](Cc1c[nH]c2ccccc12)C(=O)N[C@@H](CO)C(=O)N[C@@H](CCCCN)C(=O)N[C@@H](CC(C)C)C(=O)N[C@@H](CCCNC(=N)N)C(=O)N[C@@H](CC(C)C)C(N)=O)[C@@H](C)CC)[C@@H](C)CC)[C@@H](C)CC [PDM-63, R^111-WYIESIKIQIWSKLRL-NH2] ({X1-Ahx}-WYIESIKIQIWSKLRL-NH2) | –
≤ 60 | – | CC[C@H](C)[C@H](NC(=O)[C@H](Cc1ccc(O)cc1)NC(=O)[C@H](Cc1c[nH]c2ccccc12)NC(=O)CCCCCNC(=O)CCOCCOCCOCCOC)C(=O)N[C@@H](CCC(=O)O)C(=O)N[C@@H](Cc1c[nH]c2ccccc12)C(=O)N[C@H](C(=O)N[C@@H](CCCCN)C(=O)N[C@H](C(=O)N[C@@H](CCC(N)=O)C(=O)N[C@H](C(=O)N[C@@H](Cc1c[nH]c2ccccc12)C(=O)N[C@@H](CO)C(=O)N[C@@H](CCCCN)C(=O)N[C@@H](CC(C)C)C(=O)N[C@@H](CCCNC(=N)N)C(=O)N[C@@H](CC(C)C)C(N)=O)[C@@H](C)CC)[C@@H](C)CC)[C@@H](C)CC [PDM-55, R^111-WYIEWIKIQIWSKLRL-NH2] ({X1-Ahx}-WYIEWIKIQIWSKLRL-NH2) | –
≤ 60 | – | CC[C@H](C)[C@H](NC(=O)[C@H](CCC(N)=O)NC(=O)[C@@H](NC(=O)[C@H](CCCCN)NC(=O)[C@@H](NC(=O)[C@@H](Cc1c[nH]c2ccccc12)NC(=O)[C@H](CCCNC(=N)N)NC(=O)[C@@H](NC(=O)[C@H](Cc1ccc(O)cc1)NC(=O)[C@H](Cc1c[nH]c2ccccc12)NC(=O)CCCCCNC(=O)CCOCCOCCOCCOC)[C@@H](C)CC)[C@@H](C)CC)C1CCCCC1)C(=O)N[C@@H](Cc1c[nH]c2ccccc12)C(=O)N[C@@H](CO)C(=O)N[C@@H](CCCCN)C(=O)N[C@H](C(=O)N[C@@H](CCCNC(=N)N)C(=O)N[C@@H](CC(C)C)C(N)=O)C1CCCCC1 [PDM-86, R^111-WYIRwIK-Chg-QIWSK-Chg-RL-NH2] ({X1-Ahx}-WYIR[dW]IK[Chg]QIWSK[Chg]RL-NH2) | –
≤ 60 | – | CC[C@H](C)[C@H](NC(=O)[C@H](CCC(N)=O)NC(=O)[C@@H](NC(=O)[C@H](CCCCN)NC(=O)[C@@H](NC(=O)[C@@H](Cc1c[nH]c2ccccc12)NC(=O)[C@H](CCCNC(=N)N)NC(=O)[C@@H](NC(=O)[C@H](Cc1ccc(O)cc1)NC(=O)[C@H](Cc1c[nH]c2ccccc12)NC(=O)CNC(=O)CNC(=O)COCC(=O)NCCCOCCOCCOCCCN)[C@@H](C)CC)[C@@H](C)CC)C1CCCCC1)C(=O)N[C@@H](Cc1c[nH]c2ccccc12)C(=O)N[C@@H](CO)C(=O)N[C@@H](CCCCN)C(=O)N[C@H](C(=O)N[C@@H](CCCNC(=N)N)C(=O)N[C@@H](CC(C)C)C(N)=O)C1CCCCC1 [PDM-91, R^117-WYIRwIK-Chg-QIWSK-Chg-RL-NH2] ({Diglycolyl(TOTA)}-GGWYIR[dW]IK[Chg]QIWSK[Chg]RL-NH2) | –
